Test results reported in ChEMBL document CHEMBL3886292, “Functionally selective ligands of dopamine D2 receptors” (2015).

Experiments:
D(2) dopamine receptor [1] = molecular target: T1, D(2) dopamine receptor (Homo sapiens, UniProt P14416); experiment: cAMP GloSensor Assay: HEK293T cells co-expressing the cAMP biosensor GloSensor-22F (Promega) and hD2 receptors were seeded (10,000 cells/20 ul/well) into white, clear-bottom, tissue culture plates in HBSS, 10% FBS, 20 mM HEPES, pH 7.4. After a one- to two-hour recovery, cells were treated with 10 ul of 3x test or reference drug prepared in HBSS, 10% FBS, 20 mM HEPES, pH 7.4. After 30 minutes, cells were challenged with 10 ul of 1,200 nM (4x) isoproterenol in 8% (4x) GloSensor reagent. Luminescence per well per second was read on a Wallac TriLux microbeta plate counter. Data were normalized to the isoproterenol response (100%) and the maximal quinpirole-induced inhibition thereof (0%) and regressed using the sigmoidal dose-response function built into GraphPad Prism 4.0.; type: functional, cell-based, HEK-293T
D(2) dopamine receptor [2] = molecular target: T1, D(2) dopamine receptor; experiment: Beta-Arrestin Recruitment (Tango) Assay: Recruitment of β-arrestin to agonist-stimulated D2 receptors was performed using a previously described Tango-type assay (Barnea et al., Proc. Natl. Acad. Sci. USA 105:64 (2008)). Briefly, HTLA cells stably expressing β-arrestin-TEV protease and a tetracycline transactivator-driven luciferase were plated in 15-cm dishes in DMEM containing 10% fetal bovine serum and transfected (via calcium phosphate) with 20 μg of a D2V2-TCS-tTA construct (Barnea et al., Proc. Natl. Acad. Sci. USA 105:64 (2008)). The next day, cells were plated in white, clear-bottom, 384-well plates (Greiner, 10,000 cells/well, 50 μl/well) in DMEM containing 1% dialyzed fetal bovine serum. The following day, the cells were challenged with 10 μl/well of reference agonist (6 μM) or D2 test ligand (6 μM)±reference agonist prepared in HBS, 20 mM HEPES, pH 7.4, 18% DMSO (final ligand concentrations were 1 μM, final DMSO concentration was 3%).; type: functional, cell-based

T1 sequence (P14416 whole entry): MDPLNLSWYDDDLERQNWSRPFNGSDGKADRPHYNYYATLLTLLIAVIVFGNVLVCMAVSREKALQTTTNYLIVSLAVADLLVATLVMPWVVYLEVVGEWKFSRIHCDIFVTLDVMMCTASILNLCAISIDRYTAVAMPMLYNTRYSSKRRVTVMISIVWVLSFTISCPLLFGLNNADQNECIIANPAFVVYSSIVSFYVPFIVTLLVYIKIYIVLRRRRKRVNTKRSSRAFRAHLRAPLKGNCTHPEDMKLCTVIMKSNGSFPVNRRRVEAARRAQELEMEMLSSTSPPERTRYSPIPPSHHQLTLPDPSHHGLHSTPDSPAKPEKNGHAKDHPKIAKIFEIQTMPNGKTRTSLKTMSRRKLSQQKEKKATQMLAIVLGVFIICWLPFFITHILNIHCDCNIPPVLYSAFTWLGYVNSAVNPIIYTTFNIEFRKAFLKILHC

For `COc1ccccc1N1CCCN(CCCCOc2ccc3c(n2)NC(=O)CC3)CC1`, the EC50 (D(2) dopamine receptor [1]) was 222 nM and the EC50 (D(2) dopamine receptor [2]) was 6.1 nM.
